Like-named read-outs stand apart in the source and are kept apart here.
How the values were obtained:
[1] = tested on: mice; details: asphyxiation by exclusion of oxygen; cited from earlier work
[2] = tested on: slash pine (Pinus elliottii Engelm. var. elliottii); type: in vivo; details: for Rosin yield: 6 months, extracted dry weight
Method: (§1) On Sept. 14, 1973, replicate slash pine (Pinus elliottii Engelm. var. elliottii) were treated with 5 milliliters of either 1 percent (wt.) paraquat, 1 percent (wt.) diquat, 1percent (wt.) diquat plus 5 percent (wt.) 2-chloroethylphosphonic acid or 5 percent (wt.) 2-chloroethylphosphonic acid solutions placed in a bore hole. Each type of treatment was applied to 25 trees selected at random. One tree from each treatment was cut in January 1974. […] Six trees from each treatment were cut in March of 1974, approximately 6 months after treatment.

[3] = tested on: slash pine (Pinus elliottii Engelm. var. elliottii); experiment: Oleoresin content and visible lightwood height in slash pines 26 months after treatment (Example IV, Table IV); type: in vivo; details: for Oleoresin content / Oleoresin content, average per unit total volume: 26 months; for Oleoresin content: extracted dry weight; for Visible lightwood height: 26 months after treatment
Method: as §1

[4] = tested on: slash pine (Pinus elliottii Engelm. var. elliottii); experiment: Average lightwood heights in slash pines (Example V, Table V); type: in vivo; details: for Average lightwood height: 0% 2-chloroethylphosphonic acid
Method: On October 6 and 7, 1975, a study was begun using replicate slash pine (Pinus elliottii Engelm. var. elliottii) to explore the action of 2-chloroethylphosphonic acid in combination with diquat and/or paraquat. Each tree in the study was treated three times. The first treatment was in October in 1975, the second in March of 1976, and the third in September of 1976. Each time 5 milliliters of a solution of 2-chloroethylphosphonic acid plus paraquat and/or diquat were applied to the tree in a bore hole angled to intersect approximately one-sixth of the trunk. After treatment, the bore hole was stoppered to prevent the escape of ethylene. The trees were cut during November and December of 1976.
^a Measured from point of treatment application.

[5] = tested on: slash pine (Pinus elliottii Engelm. var. elliottii); type: in vivo; details: 0% 2-chloroethylphosphonic acid, 1.6 years
[6] = tested on: rats; details: cited from earlier work
[7] = tested on: endogenous ethylene production; details: systemically applied; cited from earlier work
[8] = tested on: red pine (Pinus resinosa); experiment: Nonvolatile extractives and dry weight of treated red pine (Example I, Table I); type: in vivo; details: for Nonvolatile extractives, entire cross section: extracted dry weight
Source text: Replicate 20-year-old plantation-grown red pine (Pinus resinosa) of a given diameter class were coned with a watertight cup. Three-hundred milliliters of 2-chloroethylphosphonic acid in various concentrations were placed in the cups, and shallow cuts one-third the circumference were made with a chisel into the xylem portion of the bole under the solution, at approximately 1.5 meters above the ground level. The treatment solution was normally adsorbed within a 24-hour period; this depended, however, on climatic conditions such as temperature and relative humidity. Trees were sacrificed 6 months after treatment and analyzed for nonvolatile extractives at given distances from the point of application, over the entire cross-section of the tree, except where noted (Table I).
^a Trees treated 5/26/76 and harvested 11/2/76. Each tree received 30
milliliters of the indicated concentration of 2chloroethylphosphonic acid
^b Distance in cm from point of treatment application.
^c Ovendry weight/fresh weight.
^d Percentage nonvolatile extractives based on the extracted dry
weight of a sample of the entire cross section.
^e Weight percentage 2chloroethylphosphonic acid in 300 milliliters o
the aqueous treatment solution.
^f Percentage nonvolatile extractives isolated from the visible
lightwood portion of each cross section based on the extracted dry weight
basis of the visible lightwood portion of each cross section.
^g Control trees were wounded and treated with water in the same
manner as the 2chloroethylphosphonic acidtreated trees.

[9] = tested on: slash pine (Pinus elliottii Engelm. var. elliottii); experiment: Percent oleoresin in slash pine 2 1/2 years after treatment (Example II, Table II); type: in vivo; details: for Percent oleoresin: dry weight of section
Method: Replicate 40-year-old-slash pine (Pinus elliottii Engelm. var. elliottii) were treated with 5-milliliter aliquotes of 5 percent 2-chloroethylphosphonic acid in bore holes 0.6 meter above the ground. The trees were harvested in March, 1976, 21/2 years after treatment. Analysis of total extractives was made for given portions of the bole beginning 0.5 meter below the point of treatment application (Table II).
^a Percentage based on the dry weight of that section of the tree.
^b Control trees were wounded and treated with water.

[10] = cited from earlier work
[11] = distance above wound printed "0.05" m
[12] = bipyridilium 0.5% (wt) in total
[13] = 0.213 wt%, distance printed "+="
[14] = 1.064 wt%, distance "30." [sic]

For `C=C` [ethylene], which “toxic concentration of gaseous ethylene” value [1] is on record?
The value was 950,000 ppm.

What does the source list for `c1cc[n+]2c(c1)-c1cccc[n+]1CC2` [diquat]?
Rosin yield ([2]; 0 m above wound): 5.5 Pct; Rosin yield ([2]; 0.5 m above wound): 2.1 Pct; Rosin yield ([2]; 1 m above wound): 2.3 Pct; Height of oleoresin soaked wood (visible lightwood) ([2]; in vivo): less than diquat plus 2-chloroethylphosphonic acid-treated trees; Oleoresin content ([3]; 0.5-1 m above wound): 9.6%; Oleoresin content ([3]; 1-1.5 m above wound): 4.5%; Oleoresin content ([3]; 1.5-2.5 m above wound): 3.5%; Oleoresin content ([3]; 2.5-4.5 m above wound): 2.8%; Oleoresin content ([3]; 4.5-6.5 m above wound): 1.9%; Visible lightwood height [3]: 2.5-3 meters; Oleoresin content, average per unit total volume [3]: 4.1%; Oleoresin content [3, 11]: 8.9%; Average lightwood height [4, 12]: 1.8 meters; Average lightwood height ([4]; bipyridilium 2% (wt) in total): 3.1 meters; Extractive content in total merchantable length ([5]; bipyridilium 0.5% (wt)): 15.2 lbs. extractives per average tree; Extractive content in total merchantable length ([5]; bipyridilium 2% (wt)): 17.3 lbs. extractives per average tree; LD50 dosage [6]: 100 mg/kg

For `C[n+]1ccc(-c2cc[n+](C)cc2)cc1` [paraquat], which Rosin yield ([2]; 0 m above wound) is on record?
The Rosin yield was 8.1 Pct.

And the Rosin yield ([2]; 0.5 m above wound)?
Its Rosin yield is 2.0 Pct.

What about the “Height of oleoresin soaked wood (visible lightwood)” value ([2]; cut March 1974, approximately 6 months) of the same compound?
The value was “less than in diquat-treated trees”.

And the Oleoresin content ([3]; 0.5-1 m above wound)?
The Oleoresin content was 12.2%.

And the Oleoresin content ([3]; 1-1.5 m above wound)?
Its Oleoresin content is 5.9%.

And the Oleoresin content ([3]; 1.5-2.5 m above wound)?
Its Oleoresin content is 3.7%.

And the Oleoresin content ([3]; 2.5-4.5 m above wound)?
Its Oleoresin content is 2.4%.

And the Oleoresin content ([3]; 4.5-6.5 m above wound)?
The Oleoresin content was 2.0%.

And the Visible lightwood height [3]?
The Visible lightwood height was at most 2 meters.

And the “Oleoresin content, average per unit total volume” value [3]?
The value was 4.6%.

What about the Oleoresin content [3, 11] of the same compound?
The Oleoresin content was 10.7%.

What about the Average lightwood height [4, 12] of the same compound?
Its Average lightwood height is 1.4 meters.

What about the Average lightwood height ([4]; bipyridilium 2% (wt) in total) of the same compound?
The Average lightwood height was 2.8 meters.

And the “Extractive content in total merchantable length” value ([5]; bipyridilium 0.5% (wt))?
Its value is 14.8 lbs. extractives per average tree.

And the “Extractive content in total merchantable length” value ([5]; bipyridilium 2% (wt))?
The value was 17.1 lbs. extractives per average tree.

And the endogenous ethylene production [7]?
The endogenous ethylene production was “marked stimulation of endogenous ethylene production”.

What about the respiration rates [7] of the same compound?
Its respiration rates is “rapid increase in respiration rates”.

What about the LD50 dosage [6] of the same compound?
The LD50 dosage was 100 mg/kg.

For `O=P(O)(O)CCCl` [2-chloroethylphosphonic acid], which “Dry weight (ovendry weight/fresh weight)” value ([8]; 0.0213 wt%, +15 cm from application) is on record?
The value was 44.5 Pct.

What about the “Nonvolatile extractives, entire cross section” value ([8]; 0.0213 wt%, +15 cm) of the same compound?
The value was 3.7 Pct.

What about the “Dry weight (ovendry weight/fresh weight)” value ([8]; 0.0213 wt%, +50 cm from application) of the same compound?
The value was 46.6 Pct.

What about the “Nonvolatile extractives, entire cross section” value ([8]; 0.0213 wt%, +50 cm) of the same compound?
Its value is 3.4 Pct.

And the “Dry weight (ovendry weight/fresh weight)” value ([8]; 0.0213 wt%, -15 cm from application)?
Its value is 43.1 Pct.

And the “Nonvolatile extractives, entire cross section” value ([8]; 0.0213 wt%, -15 cm)?
Its value is 3.1 Pct.

And the “Dry weight (ovendry weight/fresh weight)” value ([8]; 0.213 wt%, +15 cm from application)?
Its value is 44.8 Pct.

What about the “Nonvolatile extractives, entire cross section” value ([8]; 0.213 wt%, +15 cm) of the same compound?
Its value is 3.2 Pct.

What about the “Dry weight (ovendry weight/fresh weight)” value ([8]; 0.213 wt%, -15 cm from application) of the same compound?
Its value is 45.5 Pct.

What about the “Nonvolatile extractives, entire cross section” value ([8]; 0.213 wt%, -15 cm) of the same compound?
The value was 3.4 Pct.

What about the “Dry weight (ovendry weight/fresh weight)” value [8, 13] of the same compound?
Its value is 46.5 Pct.

What about the “Nonvolatile extractives, entire cross section” value [8, 13] of the same compound?
The value was 3.4 Pct.

What about the “Increase of extractive content versus water-treated controls” value ([8]; 1.064 percent (wt.), red pine, 6 months) of the same compound?
The value was “Doubling of the extractive content”.

And the “Dry weight (ovendry weight/fresh weight)” value ([8]; 1.064 wt%, +50 cm from application)?
Its value is 56.7 Pct.

What about the “Nonvolatile extractives, entire cross section” value ([8]; 1.064 wt%, +50 cm) of the same compound?
The value was 7.2 Pct.

And the “Nonvolatile extractives, visible lightwood portion” value ([8]; 1.064 wt%, +50 cm)?
The value was 18.8 Pct.

What about the “Dry weight (ovendry weight/fresh weight)” value ([8]; 1.064 wt%, +110 cm from application) of the same compound?
The value was 50.3 Pct.

And the “Nonvolatile extractives, entire cross section” value ([8]; 1.064 wt%, +110 cm)?
Its value is 3.4 Pct.

What about the “Dry weight (ovendry weight/fresh weight)” value ([8]; 1.064 wt%, +150 cm from application) of the same compound?
The value was 50.1 Pct.

What about the “Nonvolatile extractives, entire cross section” value ([8]; 1.064 wt%, +150 cm) of the same compound?
The value was 3.8 Pct.

What about the “Dry weight (ovendry weight/fresh weight)” value ([8]; 1.064 wt%, -15 cm from application) of the same compound?
The value was 54.1 Pct.

What about the “Nonvolatile extractives, entire cross section” value ([8]; 1.064 wt%, -15 cm) of the same compound?
The value was 4.0 Pct.

And the “Dry weight (ovendry weight/fresh weight)” value [8, 14]?
The value was 58.9 Pct.

What about the “Nonvolatile extractives, entire cross section” value [8, 14] of the same compound?
Its value is 6.2 Pct.

And the “Nonvolatile extractives, visible lightwood portion” value [8, 14]?
Its value is 9.3 Pct.

And the “Dry weight (ovendry weight/fresh weight)” value ([8]; 2.127 wt%, +15 cm from application)?
Its value is 67.8 Pct.

What about the “Nonvolatile extractives, entire cross section” value ([8]; 2.127 wt%, +15 cm) of the same compound?
Its value is 3.1 Pct.

And the “Dry weight (ovendry weight/fresh weight)” value ([8]; 2.127 wt%, +50 cm from application)?
Its value is 69.7 Pct.

What about the “Nonvolatile extractives, entire cross section” value ([8]; 2.127 wt%, +50 cm) of the same compound?
Its value is 3.1 Pct.

And the “Dry weight (ovendry weight/fresh weight)” value ([8]; 2.127 wt%, -15 cm from application)?
Its value is 66.5 Pct.

And the “Nonvolatile extractives, entire cross section” value ([8]; 2.127 wt%, -15 cm)?
Its value is 5.4 Pct.

And the “Change in dry weight percentage (oven dry weight/fresh weight)” value ([8]; treated trees, dehydration)?
The value was “increase in dry weight percentage”.

What about the “Increase in extractives in visibly lightered portions versus control trees” value ([8]; visible lightering portions of cross section) of the same compound?
The value was “three to six times that of control trees”.

What about the Percent oleoresin ([9]; 5% (wt), 0-3 m from application, 2 1/2 years) of the same compound?
Its Percent oleoresin is 4.3%.

And the Percent oleoresin ([9]; 5% (wt), 3-6 m from application, 2 1/2 years)?
The Percent oleoresin was 3.7%.

And the Percent oleoresin ([9]; 5% (wt), above 6 m from application, 2 1/2 years)?
Its Percent oleoresin is 3.1%.

What about the “Percent oleoresin, average” value ([9]; 5% (wt), average, dry weight, 2 1/2 years) of the same compound?
The value was 3.6%.

What about the Visible lightwood ([9]; 5 percent, 2 1/2 years after treatment) of the same compound?
Its Visible lightwood is “No visible lightwood was observed”.

What about the “Distance holding most of the increase in oleoresin production” value ([9]; 5 percent, 5 ml in bore holes) of the same compound?
Its value is 0-3 meters.

And the “Increase of volatile versus nonvolatile oleoresins” value ([9]; 5 percent, 5 ml in bore holes)?
The value was “A greater increase in the volatile (turpentine) than in the nonvolatile (resin) oleoresins”.

What about the Rosin yield ([2]; 0 m above wound) of the same compound?
The Rosin yield was 2.6 Pct.

And the “Stimulation of visible lightwood formation” value ([2]; 5 percent (wt.) alone, approximately 6 months)?
The value was “did not stimulate visible lightwood formation”.

What about the “Effect on lightwood stimulation by diquat and paraquat” value ([4]; Example V combinations) of the same compound?
The value was “increases the lightwood stimulating effects of diquat and paraquat”.

What about the “pH of a typical aqueous solution” value ([10]; typical aqueous solution) of the same compound?
Its value is 1.0 pH.

And the “pH above which hydrolysis begins and ethylene is released” value ([10]; xylem transport system of the tree)?
The value was over 5 pH.

What about the LD50 dosage [6] of the same compound?
Its LD50 dosage is 4,229 mg/kg.

For `CCCN` [n-propylamine], which LD50 dosage [6] is on record?
The LD50 dosage was 560 mg/kg.

— patent US4203253A, “Process for increasing oleoresin synthesis in pinus species” (priority 1979, dated 1980)
